In US8933098B2, “Dimethyl-benzoic acid compounds” (Eli Lilly and Company, priority 2012, dated 2015):

Experiments:
human EP4 [1] = target: T1, human EP4 (Homo sapiens (Human), UniProt P35408); assay: In vitro binding to human EP4, [3H]-PGE2 displacement on membranes; conditions: HEK293 membranes, n = 7, read-out: hEP4, Ki
Target sequence in this assay (P35408 whole entry, looked up): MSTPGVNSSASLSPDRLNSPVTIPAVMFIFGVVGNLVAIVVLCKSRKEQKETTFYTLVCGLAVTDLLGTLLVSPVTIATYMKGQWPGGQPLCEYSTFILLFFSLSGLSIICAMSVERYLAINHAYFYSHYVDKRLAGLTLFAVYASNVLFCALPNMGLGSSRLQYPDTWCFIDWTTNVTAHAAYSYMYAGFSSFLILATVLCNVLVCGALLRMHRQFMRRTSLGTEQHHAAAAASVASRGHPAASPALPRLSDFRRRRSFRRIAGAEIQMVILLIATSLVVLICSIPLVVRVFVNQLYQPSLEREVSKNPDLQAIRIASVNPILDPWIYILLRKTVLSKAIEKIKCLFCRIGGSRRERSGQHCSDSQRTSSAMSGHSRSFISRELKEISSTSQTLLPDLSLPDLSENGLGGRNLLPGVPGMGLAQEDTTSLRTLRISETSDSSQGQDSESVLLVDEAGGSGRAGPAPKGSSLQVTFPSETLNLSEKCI
Protocol: Compounds are tested in a 96-well format using a three-fold dilution series to generate a 10-point curve. […] The binding reaction is performed in 200 μL MES buffer (10 mM MES pH 6.0 with KOH, 10 mM MgCl2 and 1 mM EDTA) using 0.5 mL polystyrene 96-well deep-well plates. […] The membranes are harvested by filtration (TomTek harvester), washed 4 times with cold buffer (10 mM MES pH 6.0 with KOH, 10 mM MgCl2), dried in a 60° C. oven, and the radioactivity is quantified as counts per minute (CPM) using a TopCount detector. […] Data are analyzed using a 4-parameter nonlinear logistic equation (ABase Equation 205) as shown: y=(A+((B−A)/(1+((C/x)^D)))) where, y=% specific inhibition, A=bottom of the curve; B=top of the curve; C=relative IC50 concentration causing 50% inhibition based on the range of the data from top to bottom; D=Hill, Slope=slope of the curve. Ki conversion from IC50 Values (Ki=IC50/(1+[L]/Kd) where [L] is the ligand concentration).

human EP4 [2] = target: T1, human EP4; assay: In vitro antagonist activity in human whole blood (reversal of PGE2 inhibition of LPS-induced TNFα production); assay type: cell-based; conditions: read-out: IC50 measured at human EP4, human blood TNFα induction assay
Target sequence in this assay (P35408 whole entry, looked up): as above
Protocol: Blood is collected from normal volunteer donors into sodium heparin vacutainer tubes. Donors have not taken NSAIDs or celecoxib within 48 hours or glucocorticoids within two weeks of the donation. All tubes/donor are pooled into 50 mL Falcon conical centrifuge tubes and 98 μL/well is distributed into 96-well tissue culture plates (Falcon 3072). […] The plates are incubated for 20-24 hours at 37° C. in a 5% CO2 humidified atmosphere. The plates are centrifuged at 1800×g, 10 minutes at 22° C., in an Eppendorf 5810R centrifuge. Plasma is removed from the cell layer and is transferred to v-bottom polypropylene plates. TNFα levels in 2 μL plasma are quantified by a commercially available enzyme immunoassay (R&D Systems DY210), using Immulon 4 HBX plates (Thermo 3855) and 3,3′,5,5′ tetramethylbiphenyl-4,4′-diamine substrate (KPL 50-76-03). The plates are read at A450-A650 on a plate reader (Molecular Devices Versamax) using SOFTmaxPRO (v. 4.3.1) software. IC50s are calculated using Graphpad Prism (v. 4) nonlinear regression, sigmoidal dose response curve fitting. Results are expressed as the geometric mean±standard deviation; n=number of independent determinations.

human EP1 = human EP1 (Homo sapiens (Human), UniProt P34995); assay: In vitro binding to human EP1, [3H]-PGE2 displacement on membranes; conditions: HEK293 membranes, n = 1, read-out: hEP1, Ki
Protocol: (§1) hEP1 and hEP4 membranes are prepared from recombinant HEK293 cells stably expressing human EP1 (Genbank accession number AY275470) or EP4 (Genbank accession number AY429109) receptors. hEP2 and hEP3 membranes are prepared from HEK293 cells transiently transfected with EP2 (Genbank accession number AY275471) or EP3 (isoform VI: Genbank accession number AY429108) receptor plasmids. Frozen cell pellets are homogenized in homogenization buffer using a Teflon/glass homogenizer. Membrane protein is aliquoted and quick frozen on dry ice prior to storage at −80° C. Homogenization buffer contained 10 mM Tris-HCl, pH 7.4, 250 mM sucrose, 1 mM EDTA, 0.3 mM indomethacin and plus Complete™, with EDTA, obtained from Roche Molecular Biochemicals (Catalog Number 1 697 498).
(§2) Kd values for [3H]-PGE2 binding to each receptor are determined by saturation binding studies or homologous competition. Compounds are tested in a 96-well format using a three-fold dilution series to generate a 10-point curve. […] The membranes are harvested by filtration (TomTek harvester), washed 4 times with cold buffer (10 mM MES pH 6.0 with KOH, 10 mM MgCl2), dried in a 60° C. oven, and the radioactivity is quantified as counts per minute (CPM) using a TopCount detector. […]

human EP3 (isoform VI) = human EP3 (isoform VI) (Homo sapiens, UniProt P43115); assay: In vitro binding to human EP3, [3H]-PGE2 displacement on membranes; conditions: HEK293 membranes, n = 1, read-out: hEP3, Ki
Protocol: as §1, with “-80°” for “−80°”, “CompleteTM,” for “Complete™,”, “498). Kd values for [3H]-PGE2 binding to each receptor are determined by saturation binding studies or homologous competition. Compounds are tested in a 96-well format using a three-fold dilution series to generate a 10-point curve. […] The membranes are harvested by filtration (TomTek harvester), washed 4 times with cold buffer (10 mM MES pH 6.0 with KOH, 10 mM MgCl2), dried in a 60° C. oven, and the radioactivity is quantified as counts per minute (CPM) using a TopCount detector. […]” for “498).”

human EP2 = human EP2 (Homo sapiens (Human), UniProt P43116); assay: In vitro binding to human EP2, [3H]-PGE2 displacement on membranes; conditions: HEK293 membranes, n = 1, read-out: hEP2, Ki
Protocol: as §1, §2

rat EP4 = rat EP4 (Rattus norvegicus (Rat), UniProt P43114); assay: In vitro rat EP4 functional antagonist activity (PGE2-stimulated cAMP, HTRF); assay type: cell-based; conditions: inhibition of PGE2-stimulated (EC80) cAMP production, HEK293 cells expressing rat EP4; read-out: IC50 measured at rat EP4
Protocol: To test EP4 antagonist compounds in rEP4 cells, thaw the frozen cells and then resuspend cells in cAMP assay buffer. The cAMP buffer is made by HBSS without Phenol Red (Hyclone, SH30268) supplemented with 20 mM HEPES (Hyclone, SH30237), 0.1% BSA (Gibco, 15260) and 125 μM IBMX (Sigma, 15879). The cells are plated into 96-well half area flat-bottom polystyrene black plates (Costar 3694). […] The cAMP levels generated from the cells are quantified by a cAMP HTRF assay kit (Cisbio 62AM4PEC). The plates are read on an EnVision plate reader using HTRF optimized protocol (PerkinElmer). IC50's are calculated using Graphpad Prism (v. 4) nonlinear regression, sigmoidal dose response curve fitting.

human EP4 [3] = target: T1, human EP4; assay: In vitro human EP4 functional antagonist activity (PGE2-stimulated cAMP, HTRF); assay type: cell-based; conditions: read-out: IC50 measured at human EP4
Text: The raw data are converted to cAMP amount (pmole/well) using a cAMP standard curve generated for each experiment.
Target sequence in this assay (P35408 whole entry): as the sequence (P35408 whole entry, looked up) above

Sequence of rat EP4 (P43114 whole entry): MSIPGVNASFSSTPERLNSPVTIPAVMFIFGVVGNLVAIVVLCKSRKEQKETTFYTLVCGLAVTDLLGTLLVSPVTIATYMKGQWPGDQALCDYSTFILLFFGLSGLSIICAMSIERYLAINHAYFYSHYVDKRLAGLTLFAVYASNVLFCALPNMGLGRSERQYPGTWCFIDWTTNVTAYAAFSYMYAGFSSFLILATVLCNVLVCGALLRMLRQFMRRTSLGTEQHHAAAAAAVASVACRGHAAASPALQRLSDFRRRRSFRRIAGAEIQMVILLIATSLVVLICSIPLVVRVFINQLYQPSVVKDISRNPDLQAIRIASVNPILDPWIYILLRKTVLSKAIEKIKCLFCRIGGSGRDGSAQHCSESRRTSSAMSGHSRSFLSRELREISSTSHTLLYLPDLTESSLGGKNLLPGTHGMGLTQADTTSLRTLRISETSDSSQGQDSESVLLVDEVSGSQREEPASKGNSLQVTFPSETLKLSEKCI
Sequence of human EP1 (P34995 whole entry, canonical isoform): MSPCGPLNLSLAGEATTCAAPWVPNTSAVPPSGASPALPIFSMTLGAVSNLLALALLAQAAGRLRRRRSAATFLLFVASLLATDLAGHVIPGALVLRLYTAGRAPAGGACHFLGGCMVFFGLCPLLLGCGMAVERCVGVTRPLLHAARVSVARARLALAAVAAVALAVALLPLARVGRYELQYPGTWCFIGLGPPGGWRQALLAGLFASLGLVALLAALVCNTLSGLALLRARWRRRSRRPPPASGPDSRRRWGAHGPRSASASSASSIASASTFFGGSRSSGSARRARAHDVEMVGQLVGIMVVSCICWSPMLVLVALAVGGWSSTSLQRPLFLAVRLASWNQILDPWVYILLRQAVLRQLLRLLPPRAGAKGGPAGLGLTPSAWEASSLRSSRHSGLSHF
Sequence of human EP3 (isoform VI) (P43115 whole entry, looked up, canonical isoform): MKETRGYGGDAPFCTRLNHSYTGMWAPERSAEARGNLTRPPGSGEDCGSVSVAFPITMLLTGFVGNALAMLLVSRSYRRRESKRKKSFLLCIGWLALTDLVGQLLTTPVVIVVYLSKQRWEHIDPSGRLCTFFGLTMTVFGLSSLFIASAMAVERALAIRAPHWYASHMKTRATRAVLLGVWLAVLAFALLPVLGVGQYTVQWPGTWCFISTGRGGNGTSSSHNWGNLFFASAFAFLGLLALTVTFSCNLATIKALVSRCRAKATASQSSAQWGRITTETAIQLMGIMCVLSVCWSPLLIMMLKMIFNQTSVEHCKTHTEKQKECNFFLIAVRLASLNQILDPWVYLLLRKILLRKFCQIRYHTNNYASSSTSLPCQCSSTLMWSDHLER
Sequence of human EP2 (P43116 whole entry): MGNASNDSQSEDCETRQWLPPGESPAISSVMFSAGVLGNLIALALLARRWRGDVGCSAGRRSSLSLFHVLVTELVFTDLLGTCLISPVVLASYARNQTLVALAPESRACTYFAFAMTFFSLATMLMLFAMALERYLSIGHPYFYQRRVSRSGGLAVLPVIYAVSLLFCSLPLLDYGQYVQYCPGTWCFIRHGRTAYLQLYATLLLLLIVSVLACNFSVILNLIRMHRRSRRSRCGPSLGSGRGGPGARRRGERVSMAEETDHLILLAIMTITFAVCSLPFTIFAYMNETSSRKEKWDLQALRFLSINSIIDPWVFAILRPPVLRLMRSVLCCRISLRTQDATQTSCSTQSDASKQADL

Ki (human EP4 [1]): 76 ± 47 nM | IC50 (human EP4 [2]): 123 ± 81 nM | Ki (human EP1): > 17500 nM | Ki (human EP3 (isoform VI)): > 14000 nM | Ki (human EP2): > 18900 nM | IC50 (rat EP4): 12 nM | IC50 (human EP4 [3]): 5.6 ± 2.8 nM
Structure (SMILES): Cc1ccc(N2CCC(O)CC2)nc1C(=O)Nc1c(C)cc(C(=O)O)cc1C [Example 1, 4-[[6-(4-hydroxy-1-piperidyl)-3-methyl-pyridine-2-carbonyl]amino]-3,5-dimethyl-benzoic acid]
